For test [1], the species on record is Bos taurus. The test is described as follows: In vitro inhibition of IL1-beta (interleukin-1-beta) induced degradation of bovine nasal cartilage in an organ culture assay at 30 uM. Format: functional.
For test [2], the species on record is Bos taurus. The test is described as follows: In vitro inhibition of IL1-beta (interleukin-1-beta) induced degradation of bovine nasal cartilage in an organ culture assay. It is filed as functional.

Drawing on ChEMBL document CHEMBL1150010, “Inhibition of cartilage degradation by isothiazoloquinolinones” (Bioorg Med Chem Lett, 1994), this text covers inhibition and IC50 for six compounds.

Broadly, the inhibition is the percentage by which the read-out fell short of the control. A higher inhibition goes with strong suppression. The compound `COc1cc2c(=O)cc3c4ccccc4sn3c2c(OC)c1OC` displayed an inhibition at 30 µM in the test listed under Bos taurus [1] of 80%.
As a reminder, the IC50 is the midpoint of a concentration-inhibition curve. A high value points to weaker potency in that assay. In turn, `O=c1cc2c3ccccc3sn2c2ccccc12` displayed an IC50 in the test listed under Bos taurus [2] of 8 µM.
In the test listed under Bos taurus [1], `O=c1cc2c3ccccc3sn2c2ccc(Cl)cc12` gave an inhibition at 30 µM of 84%.
The same measure, in the same setting: then `COc1cccc2c1sn1c3ccccc3c(=O)cc21`, with 30%.
Compound `O=c1cc2c3cccnc3sn2c2ccccc12` showed an IC50 in the test filed under Bos taurus [2] of 22 µM.
For the compound `COc1cccc2c(=O)cc3c4ccccc4sn3c12`, testing at 30 µM in the test listed under Bos taurus [1] gave an inhibition of 74%.
